Experimental data: PubChem BioAssay (NCI)
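Where inhibition never reached the appropriate level, the endpoint shown equals the highest concentration tested. Otherwise, values were interpolated linearly from a five-concentration, 48-hour dose response in 96-well plates. GI50: concentration for 50% inhibition of growth. TGI denotes the concentration required for complete inhibition of growth.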

How the values were obtained:
Experiment in all cases: NCI anticancer screen, dose series, 48 h
MALME-3M melanoma = test system: MALME-3M melanoma
HOP-92 NSCLC = test system: HOP-92 NSCLC
UACC-62 melanoma = test system: UACC-62 melanoma
SNB-19 CNS = test system: SNB-19 CNS
COLO 205 colon = test system: COLO 205 colon
CCRF-CEM leukemia = test system: CCRF-CEM leukemia
EKVX NSCLC = test system: EKVX NSCLC
NCI-H522 lung = test system: NCI-H522 lung
U251 CNS = test system: U251 CNS
HCT-15 colon = test system: HCT-15 colon

Compound | GI50 (MALME-3M melanoma) [µM] | TGI (MALME-3M melanoma) [µM] | GI50 (HOP-92 NSCLC) [µM] | TGI (HOP-92 NSCLC) [µM] | GI50 (UACC-62 melanoma) [µM] | TGI (UACC-62 melanoma) [µM] | GI50 (SNB-19 CNS) [µM] | TGI (SNB-19 CNS) [µM] | TGI (COLO 205 colon) [µM] | TGI (CCRF-CEM leukemia) [µM] | TGI (EKVX NSCLC) [µM] | TGI (NCI-H522 lung) [µM] | TGI (U251 CNS) [µM] | TGI (HCT-15 colon) [µM]
NCCCNc1nc2ccccc2c2c(=O)c3cc(OC(F)(F)F)ccc3sc12 | 1.57 | 3.08 | 1.08 | 2.36 | 1.66 | 3.07 | 1.63 | 3.12 |  |  |  |  |  | 
NNC(N)Nc1ccccc1 (stereo not given) |  | > 100 |  | > 100 |  | > 100 |  | > 100 | > 100 | > 100 | > 100 | > 100 | > 100 | > 100
NC(CCCCP(=O)(O)O)C(=O)O (stereo not given) |  |  |  | > 100 |  | > 100 |  | > 100 | > 100 | > 100 | > 100 | > 100 | > 100 | > 100
CC1CC=CC(O)C1 (stereo not given) |  | > 100 |  | > 100 |  | > 100 |  | > 100 | > 100 | > 100 | > 100 | > 100 | > 100 | > 100
O=C(OC(=O)n1ccc2ccccc21)n1ccc2ccccc21 |  |  |  | > 100 |  | > 100 |  | > 100 | > 100 | > 100 | > 100 |  | > 100 | > 100
O=NN(CCCl)C(=O)NC1CCSc2ccccc21 (stereo not given) |  | > 100 |  | > 100 |  | > 100 |  | > 100 | > 100 | > 100 | 94.1 | > 100 | > 100 | > 100
C[C@]12C=CC(=O)C=C1CC[C@H]1[C@@H]3C[C@@H](O)[C@](O)(C(=O)CO)[C@@]3(C)C[C@H](O)[C@@]12F |  | > 100 |  | > 100 |  | > 100 |  | > 100 | > 100 | > 100 | > 100 | > 100 | > 100 | > 100
COc1ccccc1C1C(C(=O)O)=C(CO)Oc2cc3c(cc21)OCO3 (stereo not given) |  | > 100 |  | > 100 |  | > 100 |  | > 100 | > 100 | > 100 | > 100 | > 100 | > 100 | > 100
Cc1ccc(S(=O)(=O)Oc2cc(-c3ccccc3)nc3ccccc23)cc1 |  | 17.9 |  | 22.9 |  | 20.7 |  | 12.3 | 1.18 | > 100 | > 100 | 3.7 | 9.85 | > 40.3
CC(=O)Oc1cccc2c(/C=N/NC(N)=S)ncc(C)c12 |  | 42.7 |  | 32.9 |  | 12.3 |  | 16.3 | > 41 | > 100 | 39.7 | 32.5 | > 42.6 | 24.1
